Our source for the IC50 values is patent US9090593B2, “Bicyclic compounds as Pim inhibitors” (AMGEN INC., priority 2010, dated 2015).

Test [1] has as its target T1, full length recombinant Pim-2 protein (Homo sapiens, UniProt Q9P1W9).
T1 construct: by full length recombinant Pim-1, Pim-2, or Pim-3 protein; hexahistidine tag followed by a thrombin cleavage site (N); made in house; host or cells: Sf9 (baculovirus) or E. coli (pET28)
The test is described as follows: Pim-2 enzyme assay (HTRF, phosphorylation of biotinylated-BAD (S112) peptide). In kind it is biochemical. The note with it: read-out: Pim2_IC50. In short, it runs like this:
(§1)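 Full-length human Pim-1 or Pim-2 (His6-tagged, Sf9 or E. coli expressed, Ni and Superdex 75 purified) phosphorylates biotinylated BAD (S112) peptide in 60 mM Hepes pH 7.0, 0.05% BSA, 2 mM DTT. Stopped with 3 mM EDTA; HTRF read with Eu anti-phospho-BAD and streptavidin-APC. IC50 from 4-parameter logistic fit of percent of control.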

In a further test the test system is KMS-Cell. The experiment in a line: KMS cell IC50 (Table 4). It counts as cell-based. Conditions: KMS cells.
In test [2] the target is T2, full length recombinant Pim-1 protein (Homo sapiens, UniProt P11309).
T2 construct: by full length recombinant Pim-1, Pim-2, or Pim-3 protein; hexahistidine tag followed by a thrombin cleavage site (N); made in house; host or cells: Sf9 (baculovirus) or E. coli (pET28)
T2 sequence (P11309 whole entry): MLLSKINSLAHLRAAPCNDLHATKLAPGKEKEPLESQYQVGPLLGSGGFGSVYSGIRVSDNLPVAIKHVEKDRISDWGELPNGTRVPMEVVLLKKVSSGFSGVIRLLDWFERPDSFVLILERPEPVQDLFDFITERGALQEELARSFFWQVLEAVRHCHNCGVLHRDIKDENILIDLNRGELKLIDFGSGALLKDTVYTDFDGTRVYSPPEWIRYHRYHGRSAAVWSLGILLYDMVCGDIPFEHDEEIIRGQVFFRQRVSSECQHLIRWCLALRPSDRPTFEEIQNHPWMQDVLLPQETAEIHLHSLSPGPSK
The test is described as follows: Pim-1 enzyme assay (HTRF, phosphorylation of biotinylated-BAD (S112) peptide). Conditions: read-out: Pim_1_IC50. It counts as biochemical. In short, it runs like this:
as §1

Test [3] addresses T3, Pim-1 stably transfected into the U2OS human osteogenic sarcoma line (Homo sapiens, UniProt P11309).
T3 construct: expressed in transfected cells; host or cells: U2OS human osteogenic sarcoma line
The test is described as follows: Pim cell assay, phospho-BAD normalized against total BAD, U2OS stably transfected with Pim-1. It counts as cell-based. The note with it: U2OS cells stably transfected with Pim-1, phospho-BAD; high dose […]; read-out: Pim1_Cell_IC50. In a few lines:
(§2)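 U2OS cells stably expressing Pim-1 or Pim-2 were plated overnight at 37 °C, then dosed over a 10-point curve (final 0.3% DMSO; DMSO alone as high control). Lysates assayed for phospho- and total BAD by Meso Scale immunoassay; % phosphoprotein = (2×phospho)/(phospho+total)×100.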

The target of test [4] is T4, full length recombinant Pim-3 protein (Homo sapiens, UniProt Q86V86).
T4 construct: by full length recombinant Pim-1, Pim-2, or Pim-3 protein; purchased Millipore (UK)
The experiment in a line: Pim-3 enzyme assay (HTRF, phosphorylation of biotinylated-BAD (S112) peptide). It counts as biochemical. Conditions: read-out: Pim3 IC50. In a few lines:
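Full-length recombinant Pim-3 phosphorylates biotinylated BAD (S112) peptide in 60 mM Hepes pH 7.0, 0.05% BSA, 2 mM DTT; reaction stopped with 3 mM EDTA. Phospho-BAD detected by HTRF (Eu anti-phospho-BAD S112 antibody, streptavidin-APC). IC50 from percent-of-control values fitted to a 4-parameter logistic model.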

Test [5] concerns the target T5, Pim-2 stably transfected into the U2OS human osteogenic sarcoma line (Homo sapiens, UniProt Q9P1W9).
T5 construct: expressed in transfected cells; host or cells: U2OS human osteogenic sarcoma line
The experiment in a line: Pim cell assay, phospho-BAD normalized against total BAD, U2OS stably transfected with Pim-2. Note: high dose 31.6 µM. In kind it is cell-based. Conditions: U2OS cells stably transfected with Pim-2, phospho-BAD; high dose […]; read-out: Pim2_Cell_IC50. In short, it runs like this: as §2

Structures are written as SMILES. Structures can show the parent of a compound that is named as a salt. Where two headings read alike, the source gives them in different places.

T1 sequence (Q9P1W9 whole entry): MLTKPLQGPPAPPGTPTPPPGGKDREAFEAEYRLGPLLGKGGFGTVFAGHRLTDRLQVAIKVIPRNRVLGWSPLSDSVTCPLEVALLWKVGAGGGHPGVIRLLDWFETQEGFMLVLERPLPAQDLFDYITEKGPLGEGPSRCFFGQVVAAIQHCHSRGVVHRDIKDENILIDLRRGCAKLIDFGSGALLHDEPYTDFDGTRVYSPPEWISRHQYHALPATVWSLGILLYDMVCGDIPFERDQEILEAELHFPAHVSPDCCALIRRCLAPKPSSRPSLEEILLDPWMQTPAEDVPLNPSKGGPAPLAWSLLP
T5 sequence (Q9P1W9 whole entry): as above
T3 sequence (P11309 whole entry): as the sequence (P11309 whole entry) above

As for `Fc1cccc(F)c1-c1ccc2[nH]nc(-c3cncc(OC4CCNCC45CC5)n3)c2c1` (single isomer, unassigned) [Example 430], the IC50 in test [1] was 6 nM; with KMS-Cell, 7850 nM; in test [2], 1 nM.

Turning to `Fc1ccc(F)c(-c2ccc3[nH]nc(-c4cncc(O[C@H]5CNCCC56CC6)n4)c3c2)c1` [Example 442], the IC50 in test [1] is 4 nM; in the test with KMS-Cell, 6430 nM; in test [2], 2 nM.

As for `C=C(c1ccc2[nH]nc(-c3cncc(O[C@H]4CNCCC45CC5)n3)c2c1)C(F)(F)F` [Example 257, 3-(6-((4R)-6-azaspiro[2.5]oct-4-yloxy)-2-pyrazinyl)-5-(1-(trifluoromethyl)ethenyl)-1H-indazole], the figures for the IC50 (in test [1]; in the test with KMS-Cell; in test [2]) were 2 nM, 1170 nM and 4 nM, respectively.

Consider `CC1CNCC(Oc2nc(O)cc(-c3n[nH]c4ccc(-c5c(F)cccc5F)cc34)n2)C1` (single isomer, unassigned) [Example 568], for which the figures for the IC50 (in test [1]; in the test on KMS-Cell; in test [2]) were 21 nM, 2090 nM and 20 nM, respectively.

Consider `Fc1cccc(F)c1-c1ccc2[nH]nc(-c3cncc(CC4CCCNC4)n3)c2c1` (racemic) [Example 272, 5-(2,6-difluorophenyl)-3-(6-(3-piperidinylmethyl)-2-pyrazinyl)-1H-indazole ditrifluoroacetate], for which the IC50 was found to be 54 nM in test [1], 13000 nM in the test on KMS-Cell and 13 nM in test [2].

Regarding `C=C(C)c1ccc2[nH]nc(-c3cncc(O[C@H]4CNCCC45CC5)n3)c2c1` [Example 256, 3-(6-((4R)-6-azaspiro[2.5]oct-4-yloxy)-2-pyrazinyl)-5-(1-methylethenyl)-1H-indazole], the IC50 is 11 nM in test [1], 3280 nM in the test on KMS-Cell and 6 nM in test [2].

As for `N#CCc1ccc2[nH]nc(-c3cncc(O[C@H]4CNCCC45CC5)n3)c2c1` [Example 269, (3-(6-((4R)-6-azaspiro[25]oct-4-yloxy)-2-pyrazinyl)-1H-indazol-5-yl)acetonitrile 2,2,2-trifluoroacetate], the IC50 in test [1] came out at 99 nM; in the test on KMS-Cell it was 7380 nM; in test [2] it was 20 nM.

On to `Fc1cccc(F)c1-c1ccc2[nH]nc(-c3cncc(OC4CNCC5CC54)n3)c2c1` (stereo not shown) [Example 452], for which the IC50 was 97 nM in test [1], 9410 nM in the test on KMS-Cell and 20 nM in test [2].

For the molecule `O=c1cc(-c2n[nH]c3ccc(-c4c(F)cccc4F)cc23)nc(OC2CNCCC2F)[nH]1` (stereo not shown) [Example 554], the figures for the IC50 (in test [1]; in the test on KMS-Cell; in test [2]) were 10 nM, 6260 nM and 7 nM, respectively.

`O[C@@H]1CN(c2cncc(-c3n[nH]c4ccc(-c5c(F)cccc5F)cc34)n2)CC[C@@H]1O` (racemic) [Example 248, cis-1-(6-(5-(2,6-difluorophenyl)-1H-indazol-3-yl)-2-pyrazinyl)-3,4-piperidinediol]: the IC50 in test [1] was 43 nM; with KMS-Cell it was above 31600 nM; in test [2], 17 nM.

For the molecule `Fc1cccc(F)c1-c1ccc2[nH]nc(-c3cncc(OC4CNCC5CC54)n3)c2c1` (stereo not shown) [Example 444], the IC50 came out at 28 nM in test [1], 5050 nM in the test with KMS-Cell and 4 nM in test [2].

`c1ccc(-c2ccc3[nH]cc(-c4cncc(O[C@@H]5CCCNC5)n4)c3c2)cc1` [Example 358]: the IC50 in test [1] is 20 nM; with KMS-Cell, 8520 nM; in test [2], 4 nM.

As to `Fc1ccc(Cl)cc1-c1ccc2[nH]nc(-c3cncc(O[C@H]4CNCCC45CC5)n3)c2c1` [Example 443], the IC50 in test [1] turned out to be 5 nM; with KMS-Cell, 4640 nM; in test [2], 1 nM.

Turning to `N#Cc1ccc(-c2ccc3[nH]nc(-c4cncc(O[C@H]5CNCCC56CC6)n4)c3c2)c(F)c1` [Example 456], the IC50 worked out at 3 nM in test [1], 5490 nM in the test on KMS-Cell and 4 nM in test [2].

For the molecule `COC(=O)c1ccc2[nH]nc(-c3ccnc(N4CCC(N)CC4)n3)c2c1` [Example 491], the IC50 in test [1] turned out to be 8 nM; in the test with KMS-Cell it was 1450 nM; in test [2] it was 4 nM.

`Fc1ccnc(F)c1-c1ccc2[nH]nc(-c3cncc(O[C@H]4CNCCC45CC5)n3)c2c1` [Example 451]: the IC50 in test [1] amounted to 9 nM; with KMS-Cell, 1470 nM; in test [2], 3 nM.

Turning to `CC1(c2ccc3[nH]nc(-c4cncc(O[C@H]5CNCCC56CC6)n4)c3c2)CC1` [Example 262, 3-(6-((4R)-6-azaspiro[2.5]oct-4-yloxy)-2-pyrazinyl)-5-(1-methylcyclopropyl)-1H-indazole], the results for the IC50 (in test [1]; in the test with KMS-Cell; in test [2]) were 5 nM, 2220 nM and 4 nM, respectively.

As for `FC(F)(F)C1(c2ccc3[nH]nc(-c4cncc(O[C@H]5CNCCC56CC6)n4)c3c2)CC1` [Example 261, 3-(6-((4R)-6-azaspiro[2.5]oct-4-yloxy)-2-pyrazinyl)-5-(1-(trifluoromethyl)cyclopropyl)-1H-indazole], the IC50 in test [1] worked out at 4 nM; with KMS-Cell, 1490 nM; in test [2], 6 nM.

For the molecule `c1cc(-c2ccc3[nH]cc(-c4cncc(O[C@@H]5CCCNC5)n4)c3c2)cc(-c2nnn[nH]2)c1` [Example 355], the figures for the IC50 (in test [1]; in the test on KMS-Cell; in test [2]) were 104 nM, above 31600 nM and 20 nM, respectively.

Turning to `CC[C@H]1CCNC[C@@H]1Oc1cncc(-c2n[nH]c3ccc(-c4c(F)cccc4F)cc23)n1` [Example 398, 5-(2,6-difluorophenyl)-3-(6-(((3R,4S)-4-ethyl-3-piperidinyl)oxy)-2-pyrazinyl)-1H-indazole], the values for the IC50 (in test [1]; in the test on KMS-Cell; in test [2]) were 12 nM, 10700 nM and 9 nM, respectively.

Take `O=c1cc(-c2n[nH]c3ccc(-c4nccs4)cc23)nc(O[C@@H]2CNCC[C@H]2F)[nH]1` (racemic) [Example 289, 2-((trans-4-fluoropiperidin-3-yl)oxy)-6-(5-(thiazol-2-yl)-1H-indazol-3-yl)pyrimidin-4(3H)-one trifluoroacetate]: the IC50 came to 1 nM in test [1] and 3540 nM in the test with KMS-Cell.

`N#Cc1ncccc1-c1ccc2[nH]nc(-c3cncc(O[C@H]4CNCCC45CC5)n3)c2c1` [Example 410]: the IC50 in test [1] is 7 nM; in the test on KMS-Cell it was 1750 nM; in test [2], 9 nM.

Turning to `c1cc2[nH]nc(-c3cncc(O[C@H]4CNCCC45CC5)n3)c2cc1C1CCC1` [Example 453], the results for the IC50 (in test [1]; in the test on KMS-Cell; in test [2]) were 7 nM, 4190 nM and 4 nM, respectively.

In the case of `N#Cc1cccc(F)c1-c1ccc2[nH]nc(-c3cncc(O[C@H]4CNCCC45CC5)n3)c2c1` [Example 409], the figures for the IC50 (in test [1]; with KMS-Cell; in test [2]) were 1 nM, 2680 nM and 1 nM, respectively.

As to `NS(=O)(=O)c1ccc(-c2ccc3[nH]nc(-c4cncc(O[C@H]5CNCCC56CC6)n4)c3c2)c(F)c1` [Example 463], the results for the IC50 (in test [1]; in the test with KMS-Cell; in test [2]) were 1 nM, 1610 nM and 2 nM, respectively.

Turning to `Nc1ccc(-c2ccc3[nH]nc(-c4cncc(O[C@H]5CNCCC56CC6)n4)c3c2)c(F)n1` [Example 466], the IC50 in test [1] was determined as 1 nM; in the test with KMS-Cell, 346 nM.

For the molecule `CC(=O)Nc1ccc(-c2ccc3[nH]nc(-c4cncc(O[C@H]5CNCCC56CC6)n4)c3c2)c(F)c1` [Example 462], the IC50 in test [1] is 1 nM; in the test with KMS-Cell it was 560 nM.

Consider `O=c1cc(-c2n[nH]c3cc(F)c(-c4c(F)cccc4F)cc23)nc(O[C@H]2CNCC[C@@H]2F)[nH]1` [Example 544], for which the IC50 in test [1] worked out at 1 nM; in the test with KMS-Cell it was 633 nM.

With `CCN(CC)C(=O)c1cccc(-c2ccc3[nH]nc(-c4cncc(N5CCC(N)CC5)n4)c3c2)c1F` [Example 47, 3-(3-(6-(4-amino-1-piperidinyl)-2-pyrazinyl)-1H-indazol-5-yl)-N,N-diethyl-2-fluorobenzamide], the IC50 in test [1] (enzyme assay, Pim-2) is 290 nM; in test [3], 1940 nM; in test [4], 43 nM; in test [5] it was above 31600 nM; in test [2] (enzyme assay, Pim-1), 43 nM.

As for `NC1CCN(c2cncc(-c3n[nH]c4ccc(-c5cccnc5O)cc34)n2)CC1` [Example 68, 3-(3-(6-(4-amino-1-piperidinyl)-2-pyrazinyl)-1H-indazol-5-yl)-2-pyridinol], the IC50 in test [1] (enzyme assay, Pim-2) is 88 nM; in test [3], above 31600 nM; in test [4], 11 nM; in test [5], above 31600 nM; in test [2] (enzyme assay, Pim-1) it was 20 nM.

On to `O=c1cc(-c2n[nH]c3ccc(-c4c(F)cccc4F)cc23)nc(OC2CNCCC2F)[nH]1` (stereo not shown) [Example 555], for which the IC50 in the test on KMS-Cell amounted to 307 nM.
